{
  "source": "patent US20150087587A1",
  "about": "“Process for the Synchronization of Ovulation for Timed Breeding Without Heat Detection” (priority 2003, published 2015)",
  "assay_type_in_all_cases": "in vivo, swine",
  "key": {"[1]": {"tested_on": "postpartum sows", "experiment": "Timed injection 96 hours post-weaning and single timed insemination without estrus detection; pregnancy, embryos and CL (Example 3)", "settings": "50 mcg deslorelin in SAIB at 96 hours post-weaning", "experimental": "Approximately 170 postpartum sows were randomly divided into two equal groups comprised of controls and treated. Following weaning, the controls were detected for estrus and bred following the normal standard operating procedures for the farms on which they resided. The treated sows received a 50 mcg dose of deslorelin in SAIB at 96 hours post-weaning and were bred with a single insemination 28+/−2 hours later with no regard to estrus detection. The sows were examined for pregnancy by ultrasound at 21 days and slaughtered around 28 days post breeding, The entire reproductive tract was removed and corpora lutea and embryos were counted."}, "[2]": {"tested_on": "postpartum sows", "experiment": "Litter size and pregnancy rate after treatment in postpartum sows at three farm sites (Example 4)", "settings": "regardless of estrus detection", "source_text": "Postpartum sows were randomly distributed into three different groups comprised of Controls, Treatment 1, and Treatment 2, with the exception of Site 3, which was divided into two groups, Control and Treatment 2. Control sows were detected for estrus following weaning, and bred following the normal standard operating procedures for the farms on which they resided. Treatment 1 sows were detected for estrus following weaning, and received a 50 mcg dose of deslorelin in the morning when standing and were bred by AI 4 hours later and again at 24+/−2 hours later. Treatment 2 sows received a 50 mcg dose of deslorelin in SAIB at 96 or 120 hours post-weaning and were bred with a single insemination 28+/−2 hours later with no regard to estrus detection. […]"}, "[3]": {"tested_on": "mature postpartum sows", "experiment": "Intravulvar injection at estrus detection with AI in mature postpartum sows (Example 2)", "settings": "50 mcg deslorelin in SAIB intravulvar at estrus detection", "experimental": "Sows were assigned randomly in blocks of two to either control or to be injected intravulvar with 50 mcg of deslorelin in SAIB at the time of estrus detection for sows first detected in estrus in the a.m. and 12 hours later for those first detected in estrus in the p.m. Treated animals were bred AI upon detected estrus and again 24 hours later if still in estrus. Controls received a saline injection on first detected estrus behavior estrus detection and were bred according to the farm's normal procedures."}},
  "data": [
    {"molecule": "CCNC(=O)[C@@H]1CCCN1C(=O)[C@H](CCCN=C(N)N)NC(=O)[C@H](CC(C)C)NC(=O)[C@@H](Cc1c[nH]c2ccccc12)NC(=O)[C@H](Cc1ccc(O)cc1)NC(=O)[C@H](CO)NC(=O)[C@H](Cc1c[nH]c2ccccc12)NC(=O)[C@H](Cc1cnc[nH]1)NC(=O)[C@@H]1CCC(=O)N1", "note": "[Deslorelin, deslorelin]", "values": [
      {"measurement": "Embryo Survival", "setting": "[1]; single insemination", "result": 64, "unit": "%"},
      {"measurement": "Pregnancy Rate", "setting": "[1]; single insemination 28+/-2 hours later, no estrus detection", "result": 71, "unit": "%"},
      {"measurement": "Sows Pregnant", "setting": "[1]; single insemination 28+/-2 hours later, 84 in group", "result": 60},
      {"measurement": "Litter sizes (in words)", "setting": "[2]", "result": "normal litter sizes"},
      {"measurement": "Pregnancy rates, Control versus Treated (in words)", "setting": "[3]", "result": "no significant difference"}
    ]}
  ]
}
